Values quoted from earlier work as cited in PMC10778976, “BAY-3827 and SBI-0206965: Potent AMPK Inhibitors That Paradoxically Increase Thr172 Phosphorylation” (International Journal of Molecular Sciences, 2023).

Experiments:
[1] = system: RSK (RSK1-4, also known as RPS6KA1-4); conditions: selectivity screen against 331 kinases, 1 µM, 10 µM ATP; cited from earlier work
[2] = biological target: T1, LKB1 (human LKB1:STRADα:MO25α complex) (Homo sapiens, UniProt Q15831); conditions: single fixed inhibitor concentration (0.25 µM); cited from earlier work
T1 construct: made in house
T1 sequence (Q15831 1-433): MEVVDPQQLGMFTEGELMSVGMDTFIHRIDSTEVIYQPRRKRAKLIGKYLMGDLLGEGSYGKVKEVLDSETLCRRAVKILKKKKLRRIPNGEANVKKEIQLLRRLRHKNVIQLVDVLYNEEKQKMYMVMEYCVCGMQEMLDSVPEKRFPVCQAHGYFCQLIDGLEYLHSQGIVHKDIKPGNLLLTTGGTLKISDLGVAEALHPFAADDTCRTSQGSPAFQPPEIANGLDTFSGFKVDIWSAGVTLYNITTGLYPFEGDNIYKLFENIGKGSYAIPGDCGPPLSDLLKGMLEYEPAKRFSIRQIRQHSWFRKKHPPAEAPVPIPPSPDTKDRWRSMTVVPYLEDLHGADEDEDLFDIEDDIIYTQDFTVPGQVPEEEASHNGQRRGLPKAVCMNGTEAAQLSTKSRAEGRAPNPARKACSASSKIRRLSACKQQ
T1 sequence (Q7RTN6 1-431 partner): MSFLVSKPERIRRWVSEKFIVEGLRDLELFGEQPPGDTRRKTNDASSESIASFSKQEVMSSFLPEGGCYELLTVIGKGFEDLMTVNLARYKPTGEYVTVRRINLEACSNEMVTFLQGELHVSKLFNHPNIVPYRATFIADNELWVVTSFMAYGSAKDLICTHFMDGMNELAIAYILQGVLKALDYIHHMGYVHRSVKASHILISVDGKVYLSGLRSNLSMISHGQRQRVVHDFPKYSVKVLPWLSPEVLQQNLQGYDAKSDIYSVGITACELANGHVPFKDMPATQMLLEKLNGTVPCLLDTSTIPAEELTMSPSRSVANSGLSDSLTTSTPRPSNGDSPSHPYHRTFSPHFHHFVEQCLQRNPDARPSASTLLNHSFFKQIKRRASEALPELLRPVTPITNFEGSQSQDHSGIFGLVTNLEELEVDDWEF
T1 sequence (Q9Y376 1-341 partner): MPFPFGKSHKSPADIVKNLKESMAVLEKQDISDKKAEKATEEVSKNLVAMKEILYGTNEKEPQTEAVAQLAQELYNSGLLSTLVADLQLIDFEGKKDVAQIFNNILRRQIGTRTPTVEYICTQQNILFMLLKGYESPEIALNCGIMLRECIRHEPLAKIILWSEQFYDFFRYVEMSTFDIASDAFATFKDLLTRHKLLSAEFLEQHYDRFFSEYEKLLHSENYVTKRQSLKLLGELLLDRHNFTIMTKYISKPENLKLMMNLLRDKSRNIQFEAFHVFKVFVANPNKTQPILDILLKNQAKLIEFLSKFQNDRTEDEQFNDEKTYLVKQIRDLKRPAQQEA

human α1β1γ1 complex = human α1β1γ1 complex (Homo sapiens, UniProt Q13131); conditions: previous estimate; read-out: IC50, inhibition of α1β1γ1; cited from earlier work
human α1β1γ1 complex, sequence (Q13131 whole entry): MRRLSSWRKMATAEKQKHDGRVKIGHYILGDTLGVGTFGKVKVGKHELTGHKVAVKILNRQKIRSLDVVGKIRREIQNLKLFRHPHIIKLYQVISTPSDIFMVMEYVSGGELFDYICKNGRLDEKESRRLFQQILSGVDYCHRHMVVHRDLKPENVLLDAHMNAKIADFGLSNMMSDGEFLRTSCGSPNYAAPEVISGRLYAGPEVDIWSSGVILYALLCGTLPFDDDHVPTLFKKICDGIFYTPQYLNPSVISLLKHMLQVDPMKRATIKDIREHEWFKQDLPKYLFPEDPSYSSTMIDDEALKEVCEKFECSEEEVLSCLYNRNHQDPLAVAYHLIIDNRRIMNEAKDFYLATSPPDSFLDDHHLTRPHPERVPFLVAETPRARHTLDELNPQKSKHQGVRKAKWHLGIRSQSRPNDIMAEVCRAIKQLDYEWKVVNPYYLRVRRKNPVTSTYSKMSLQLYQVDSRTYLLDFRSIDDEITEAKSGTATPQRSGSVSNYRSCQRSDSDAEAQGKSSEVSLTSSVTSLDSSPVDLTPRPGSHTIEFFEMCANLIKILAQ
human α1β1γ1 complex, sequence (P54619 whole entry, further chain): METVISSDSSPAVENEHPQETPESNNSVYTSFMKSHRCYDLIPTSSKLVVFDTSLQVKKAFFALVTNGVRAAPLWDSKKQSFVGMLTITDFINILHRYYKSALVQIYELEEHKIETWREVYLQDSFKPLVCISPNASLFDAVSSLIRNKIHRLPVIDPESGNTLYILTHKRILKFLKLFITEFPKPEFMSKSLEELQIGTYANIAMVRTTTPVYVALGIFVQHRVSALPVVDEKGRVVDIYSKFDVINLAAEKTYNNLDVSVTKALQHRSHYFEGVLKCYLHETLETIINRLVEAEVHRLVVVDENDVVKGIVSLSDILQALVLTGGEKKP
human α1β1γ1 complex, sequence (Q9Y478 2-270, further chain): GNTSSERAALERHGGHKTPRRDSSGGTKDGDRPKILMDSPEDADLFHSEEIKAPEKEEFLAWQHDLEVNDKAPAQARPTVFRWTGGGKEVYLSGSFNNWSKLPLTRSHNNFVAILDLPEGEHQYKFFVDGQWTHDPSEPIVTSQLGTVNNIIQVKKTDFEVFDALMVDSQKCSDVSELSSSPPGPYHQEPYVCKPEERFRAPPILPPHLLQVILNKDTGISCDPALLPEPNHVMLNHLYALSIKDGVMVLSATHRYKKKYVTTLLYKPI

## CCc1ccccc1C(=O)Nc1n[nH]c2c(C)c(F)c(C3C(C#N)=C(C)N(C)C(C)=C3C#N)cc12 [BAY-3827]
[1]
  inhibition of all four isoforms of RSK: potently inhibit

## CNC(=O)c1ccccc1Oc1nc(Nc2cc(OC)c(OC)c(OC)c2)ncc1Br [SBI-0206965]
[2]
  inhibition of LKB1: did not inhibit
Human α1β1γ1 complex
  IC50: 300 nM
